# Measurements: paper PMC10949195, “Exponential Combination of a and e/g Intracellular Peptide Libraries Identifies a Selective ATF3 Inhibitor” (ACS Chemical Biology, 2024)
# Experiments:
# ATF3 [1] = target: T1, ATF3 (Homo sapiens, UniProt P18847); assay: Isothermal titration calorimetry (ITC); format: binding; details: 20 °C, pH 7.0
# T1 construct: We focus on the selective targeting of the ATF3 leucine zipper dimerization domain using intracellular peptide library screening; made in house; host or cells: chemical solid-phase peptide synthesis (no expression host)
# T1 sequence (P18847 110-143): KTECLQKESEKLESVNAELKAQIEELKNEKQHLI
# Method: To provide additional insight into the origin of the binding affinity (KD) between ATF3 and ATF3W_aeg, isothermal titration calorimetry (ITC) experiments were performed. […] The free energy of binding was predominantly driven by a favorable enthalpic term (ΔH = −14.6 kcal/mol) and opposed by an unfavorable entropic component (TΔS= −5.33 kcal/mol).
# Figure 9 Isothermal titration calorimetry analysis of the ATF3-ATF3W_aeg interaction. In the bottom plot, the solid line represents the fit to the data based on the binding of a ligand to a macromolecule using the MicroCal (GE Healthcare) Origin software.[16] See Materials and Methods for further details.
# ITC measurements were made using a Microcal PEAQ-ITC instrument with data collected and processed using the Origin 7.0 software package.[14],[23] All measurements were carried out at least twice. Briefly, all peptides were studied at 20 °C in 10 mM potassium phosphate and 100 mM potassium fluoride at pH 7.0. 40 μL of ATF3W_aeg was loaded into the syringe at 60 μM peptide concentration. 350 μL of ATF3 was loaded into the cell at 6 μM. The experiment was undertaken by injecting 2 μL of ATF3W_aeg 19 times into the calorimetric cell. Following ITC measurements, the data were fit to a one-site model.
# Serum stability = format: in vitro ADME; details: human serum (Merck), 75 uL of 600 uM stock in 1425 uL serum, 37 °C, 3-day time course; LC-MS; averages of three experimental repeats
# Method: TableS1: Shown are peptide permeability assay on ATF3W-aeg. […]
# peptide holding on the membrane.
# Peptide permeability assay: To evaluate the peptide permeability, the BD™ pre-coated PAMPA plate system was employed. The 300uL of 200uM peptide in PBS buffer were added in the well of the receiver plate, and slowly placed the filter plate with the 200uL PBS buffer per well on the receiver plate. The peptide concentrations in both plates were determined by UV spectroscopy after the assembly plate system were incubated at room temperature for 5 hours, and the peptide permeability and mass retention were calculated by using the PAMPA plate system formula which recommended in the manufacture manual.
# Permeability (in unit of cm/s):
# Mass retention: 1 - [CD(t)*VD + CA(t)*VA ]/( C0 * VD)
# C0 = initial compound concentration in donor well (mM)
# CD(t) = compound concentration in donor well at time t (mM)
# CA(t) = compound concentration in acceptor well at time t (mM)
# VD = donor well volume = 0.3 mL
# VA = acceptor well volume = 0.2 mL […]
# Serum stability: The quantity of peptide detected by LC-MS is plotted relative to the starting point […]
# Fig S5: Shown are serum stability of ATF3W-aeg. The quantity of peptide detected by LC-MS is plotted […]
# The supernatant was analysed by LC-MS, and the peptide was quantified as the sum of the peaks with the two largest intensities1.
# ATF3 [2] = target: T1, ATF3; assay: CD spectra of ATF3-ATF3W_aeg complex; format: binding; details: 1:1 stoichiometry with ATF3, 150 μM total peptide, pH 7.0
# Method: ATF3, ATF3W_a, and ATF3W_eg and combined hit sequence ATF3W_aeg were synthesized using solid phase peptide synthesis, purified by RP-HPLC, and verified for correct mass using ESI-MS (Figure S3), after which circular dichroism (CD) was used to characterize both ATF3 and antagonist peptides for helicity and interactions as homodimers, as well as heterodimers with the ATF3 target. Global secondary analysis of both homodimeric and heterodimeric systems was carried out at a total peptide concentration of 150 μM to keep equimolar concentrations of each component helix. The 222/208 ratio was used to provide evidence on whether the helices were likely to be monomeric or adopt quaternary structure.[13] […] Furthermore, incubation of ATF3 with ATF3W_aeg elicited a significant conformational change in the sample relative to the average of the component peptides (Figure 6d black line vs red hash), providing compelling evidence for an interaction.[14] In addition, the component PCA hits were examined using CD.
# Figure 6 CD spectra data indicates a ATF3-ATF3W_aeg interaction. […] Spectra were next measured at 20 and 5 °C and again post-thermal denaturation (PM 20 °C to establish reversible that unfolding is fully reversible) at a total peptide concentration of 150 μM and presented as mean residue ellipticity (MRE). […]
substance,measurement,setting,value
Ac-ELAALEQKAYALKQENAALEKEVAALEQKIAALK-NH2 (N-terminus and C-terminus assumed) [ATF3W_aeg],"N (sites), stoichiometry of binding to ATF3",ATF3 [1],0.72
same,TΔS of binding to ATF3,ATF3 [1],-5.33 kcal/mol
same,ΔG of binding to ATF3,ATF3 [1],-9.31 kcal/mol
same,ΔH of binding to ATF3,ATF3 [1],-14.6 kcal/mol
same,"serum stability, peptide quantity relative to starting point",Serum stability,completely degraded
same,222/208 ratio of ATF3-ATF3W_aeg complex,ATF3 [2],0.94
same,fractional helicity (fH) of ATF3-ATF3W_aeg complex,ATF3 [2],~68%
